We go through 27 compounds from patent publication US20240208969A1, “SUBSTITUTED FUSED BICYCLIC COMPOUNDS AS PARP INHIBITORS AND THE USE THEREOF” (IMPACT THERAPEUTICS (SHANGHAI), INC., priority 2021, published 2024).

The assay relates to MDA-MB-436 cells. The assay can be described thus: Inhibition of proliferation of human breast cancer MDA-MB-436 cell line (CCK-8, 7 days). The format is cell-based. The conditions noted are these: Homo sapiens, 168 h, proliferation of MDA-MB-436, 7 days. How it is done: The cells were cultured in complete medium (DMEM medium +10% FBS+Insulin+glutathione). When the confluence reached about 80%, cells were digested and gently dispensed from the bottom of the dish with a 1 mL pipette. Cell suspension was collected and centrifuged at 500 rpm for 3 min. The supernatant was discarded, and the cell pellet were re-suspended in complete medium. The cells were seeded into a culture dish at an appropriate proportion, and then cultured in a 5% CO2 incubator at 37° C. The assay was carried out when the cells were in optimum condition and the confluence was reached 80%. Cells were harvested in the logarithmic growth phase by using 1 mL pipette gently and then centrifugated at 500 rpm for 3 min. The cells were resuspended by using refresh medium after removing the supernatant and then the cells were counted. The cells were seeded at 3000/well in a 96 well plate and incubated at 37° C. 5% CO2 incubator overnight. In the second day, cells were treated with compound at 8 serially diluted dose with 1000×final concentration in 100% DMSO. The compound was prepared as below: 1000×dilution tested compound solution to 40×test compound solution by adding 5μL, 1000×compound solution to 120 μL Medium (25-fold dilution). The solution was mixed by oscillation. DMSO was used as the control.
The medium was removed from the wells in the plate after the plate was taken out from incubator. Then, fresh medium of 195 μL/per well was added to the 96 well plate. 5μL/per well of 40×test compound solution was added into the 96 well plate. Finally, the plate was incubated for 7 days in a 37° C. 5% CO2 incubator. The medium containing compound was changed once on the fourth day. After 7 days, 20 μL of CCK-8 was added to each well and shake gently, then was cultured for 4 hours. The plate was shaken for 5 min after incubation, the absorbance values of 450 nm. and 650nm wavelengths were recorded respectively (OD=absorbance value of 450 nm−absorbance value of 650 nm) by using the multifunction readout instrument.
Data were analyzed by software GraphPad Prism 6.0. The inhibitory activity of compounds on cell proliferation was plotted using cell survival rate against the compound concentration as coordinates. Cell survival rate %=(ODcompound−ODbackground)/(ODDMSO−ODbackground)×100. The IC50 value was fitted by the s-shaped dose response curve equation: Y=100/(1+10^(log C−log IC50)), and C was the compound concentration.
Table 2 summarizes the inhibitory effect data (IC50) of the compounds on the proliferation of human breast cancer cells MDA-MB-436, wherein ++++ indicates 1<IC50≤10 nM; +++ indicates 10 nM<IC50≤100 nM; ++ indicates 100 nM<IC50≤1 μM; + indicates IC50>1 μM.
Broadly, the IC50 is the midpoint of a concentration-inhibition curve. High values mean a need for much substance, low ones inhibition by little substance. Compound `CNC(=O)c1ccc(N2CCN(Cc3cnc4c(=O)n(C)c(=O)[nH]c4c3)CC2)cn1` [Example 2, 5-(4-((3-methyl-2,4-dioxo-1,2,3,4-tetrahydropyrido[3,2-d]pyrimidin-7-yl)methyl)piperazin-1-yl)-N-methylpicolinamide] had an IC50 of over 1 µM.
The compound `CCn1c(=O)[nH]c2cc(CN3CCN(c4ccc(C(=O)NC)nc4)CC3)ncc2c1=O` [Example 5, 5-(4-((3-ethyl-2,4-dioxo-1,2,3,4-tetrahydropyrido[4,3-d]pyrimidin-7-yl)methyl)piperazin-1-yl)-N-methylpicolinamide] had an IC50 of over 1 µM.
To `CCn1c(=O)[nH]c2cc(CN3CCN(c4ccc(C(=O)NC)nc4F)CC3)cnc2c1=O` [Example 9, 5-(4-((3-ethyl-2,4-dioxo-1,2,3,4-tetrahydropyrido[3,2-d]pyrimidin-7-yl)methyl)piperazin-1-yl)-6-fluoro-N-methylpicolinamide] belongs 0.1 to 1 µM.
`CNC(=O)c1ccc(N2CCN(Cc3ccc4c(=O)n(CCF)c(=O)[nH]c4c3)CC2)c(C)n1` [Example 20, 5-(4-((3-(2-fluoroethyl)-2,4-dioxo-1,2,3,4-tetrahydroquinazolin-7-yl)methyl)piperazin-1-yl)-N,6-dimethylpicolinamide] returned an IC50 of 0.1 to 1 µM.
On to `CCn1c(=O)[nH]c2cc(CN3CCN(c4ccc(C(=O)NC)nc4C(F)(F)F)CC3)ccc2c1=O` [Example 23, 5-(4-((3-ethyl-2,4-dioxo-1,2,3,4-tetrahydroquinazolin-7-yl)methyl)piperazin-1-yl)-N-methyl-6-(trifluoromethyl)picolinamide], for which the half-inhibitory concentration (IC50) is 0.1 to 1 µM.
`CCn1c(=O)[nH]c2cc(CN3CCN(c4ccc(C(=O)NC)nc4C(F)F)CC3)ccc2c1=O` [Example 35, 5-(4-((3-ethyl-2,4-dioxo-1,2,3,4-tetrahydroquinazolin-7-yl)methyl)piperazin-1-yl)-6-(difluoromethyl)-N-methylpicolinamide] gave an IC50 of 0.1 to 1 µM.
For `CCn1c(=O)[nH]c2cc(CN3CCN(c4ccc5c(c4)CCN(C)C5=O)CC3)ccc2c1=O` [Example 36, 3-ethyl-7-((4-(2-methyl-1-oxo-1,2,3,4-tetrahydroisoquinolin-6-yl)piperazin-1-yl)methyl)quinazoline-2,4(1H,3H)-dione], the IC50 is over 1 µM.
`CCn1c(=O)[nH]c2cc(CN3CCN(c4ccc5c(c4)CCNC5=O)CC3)ccc2c1=O` [Example 37, 3-ethyl-7-((4-(1-oxo-1,2,3,4-tetrahydroisoquinolin-6-yl)piperazin-1-yl)methyl)quinazoline-2,4(1H,3H)-dione] showed an IC50 of over 1 µM.
As to `CCn1c(=O)[nH]c2cc(CN3CCN(c4ccn5c(=O)ccnc5c4)CC3)ccc2c1=O` [Example 38, 3-ethyl-7-((4-(4-oxo-4H-pyrido[1,2-a]pyrimidin-8-yl)piperazin-1-yl)methyl)quinazoline-2,4(1H,3H)-dione], the concentration for half-maximal inhibition (IC50) is over 1 µM.
`CCn1c(=O)[nH]c2cc(CN3CCN(c4ccc(C(=O)N(C)C)nc4F)CC3)ccc2c1=O` [Example 39, 5-(4-((3-ethyl-2,4-dioxo-1,2,3,4-tetrahydroquinazolin-7-yl)methyl)piperazin-1-yl)-6-fluoro-N,N-dimethylpicolinamide] registered a half-maximal inhibitory concentration (IC50) of over 1 µM.
Regarding `CCn1c(=O)[nH]c2cc(-c3cc(F)cc(C(=O)Nc4ccc(C(=O)NC)nc4)c3)ccc2c1=O` [Example 43, 5-(3-(3-ethyl-2,4-dioxo-1,2,3,4-tetrahydroquinazolin-7-yl)-5-fluorobenzamido)-N-methylpicolinamide], the concentration for half-maximal inhibition (IC50) was over 1 µM.
Compound `CCn1c(=O)[nH]c2cc(-c3cccc(C(=O)Nc4ccc(C(=O)NC)nc4)c3)cnc2c1=O` [Example 45, 5-(3-(3-ethyl-2,4-dioxo-1,2,3,4-tetrahydropyrido[3,2-d]pyrimidin-7-yl)benzamido)-1-methylpicolinamide] showed a 50% inhibitory concentration (IC50) of over 1 µM.
Take `CCn1c(=O)[nH]c2cc(-c3cccc(C(=O)Nc4ccc(C(=O)NC)nc4)n3)ccc2c1=O` [Example 46, 6-(3-ethyl-2,4-dioxo-1,2,3,4-tetrahydroquinazolin-7-yl) -N-(6-(methylcarbamoyl)pyridin-3-yl)picolinamide]: the IC50 was 0.1 to 1 µM.
`CCn1c(=O)[nH]c2cc(CN3CCN(c4cnc(C(=O)NC)cc4C)CC3)ccc2c1=O` [Example 50, 5-(4-((3-ethyl-2,4-dioxo-1,2,3,4-tetrahydroquinazolin-7-yl)methyl)piperazin-1-yl)-N,4-dimethylpicolinamide] displayed an IC50 of over 1 µM.
In turn, `CCn1c(=O)[nH]c2cc(CN3CCN(c4cnc(C(=O)NC)c(C)c4)CC3)ccc2c1=O` [Example 51, 5-(4-((3-ethyl-2,4-dioxo-1,2,3,4-tetrahydroquinazolin-7-yl)methyl)piperazin-1-yl)-N,3-dimethylpicolinamide] yielded an IC50 of over 1 µM.
The compound `CCn1c(=O)[nH]c2cc(CN3CCN(c4ccc(C(=O)NC)nc4C)CC3)c(C)cc2c1=O` [Example 52, 5-(4-((3-ethyl-6-methyl-2,4-dioxo-1,2,3,4-tetrahydroquinazolin-7-yl)methyl)piperazin-1-yl)-N,6-dimethylpicolinamide] returned a half-maximal inhibitory concentration (IC50) of over 1 µM.
In the case of `CCn1c(=O)[nH]c2cc(CN3CCN(c4ccc(C(=O)NC)nc4C)CC3)c(Cl)cc2c1=O` [Example 53, 5-(4-((6-chloro-3-ethyl-2,4-dioxo-1,2,3,4-tetrahydroquinazolin-7-yl)methyl)piperazin-1-yl)-N,6-dimethylpicolinamide], the 50% inhibitory concentration (IC50) is over 1 µM.
In turn, `CCn1c(=O)[nH]c2cc(CN3CCN(c4ccc(C(=O)NC)nc4C)CC3)cc(F)c2c1=O` [Example 56, 5-(4-((3-ethyl-5-fluoro-2,4-dioxo-1,2,3,4-tetrahydroquinazolin-7-yl)methyl)piperazin-1-yl)-N,6-dimethylpicolinamide] yielded a half-inhibitory concentration (IC50) of 0.01 to 0.1 µM.
Regarding `CCn1c(=O)[nH]c2cc(CN3CCN(c4cnc(C(=O)NC)cn4)CC3)ccc2c1=O` [Example 57, 5-(4-((3-ethyl-2,4-dioxo-1,2,3,4-tetrahydroquinazolin-7-yl)methyl)piperazin-1-yl)-N-methylpyrazine-2-carboxamide], the 50% inhibitory concentration (IC50) is over 1 µM.
In the case of `CCn1c(=O)[nH]c2cc(CN3CCC(c4ccc(C(=O)NC)nc4C)CC3)ccc2c1=O` [Example 58, 5-(1-((3-ethyl-2,4-dioxo-1,2,3,4-tetrahydroquinazolin-7-yl)methyl)piperidin-4-yl)-N,6-dimethylpicolinamide], the IC50 is over 1 µM.
Take `CCn1c(=O)[nH]c2cc(CN3CCN(c4ccc(C(=O)NC)nc4C)CC3)cc(Cl)c2c1=O` [Example 59, 5-(4-((5-chloro-3-ethyl-2,4-dioxo-1,2,3,4-tetrahydroquinazolin-7-yl)methyl)piperazin-1-yl)-N,6-dimethylpicolinamide]: the half-maximal inhibitory concentration (IC50) was 0.01 to 0.1 µM.
`CCn1c(=O)[nH]c2cc(CN3CCN(c4ccc(C(=O)NC)nc4Cl)CC3)c(Cl)cc2c1=O` [Example 65, 6-chloro-5-(4-((6-chloro-3-ethyl-2,4-dioxo-1,2,3,4-tetrahydroquinazolin-7-yl)methyl)piperazin-1-yl)-N-methylpicolinamide] had a 50% inhibitory concentration (IC50) of 0.1 to 1 µM.
For the compound `CCn1c(=O)[nH]c2cc(CN3CCN(c4ccc(C(=O)NC)nc4Cl)CC3)c(C)cc2c1=O` [Example 66, 6-chloro-5-(4-((3-ethyl-6-methyl-2,4-dioxo-1,2,3,4-tetrahydroquinazolin-7-yl)methyl)piperazin-1-yl)-N-methylpicolinamide], the IC50 was in the range of 0.1 to 1 µM.
`CCn1c(=O)[nH]c2cc(CN3CCN(c4ccc(C(=O)NC)cc4)CC3)ccc2c1=O` [Example 68, 4-(4-((3-ethyl-2,4-dioxo-1,2,3,4-tetrahydroquinazolin-7-yl)methyl)piperazin-1-yl)-N-methylbenzamide] displayed an IC50 of over 1 µM.
To `CCn1c(=O)[nH]c2cc(CN3CCN(c4ccc(C(=O)NC)cc4F)CC3)ccc2c1=O` [Example 69, 4-(4-((3-ethyl-2,4-dioxo-1,2,3,4-tetrahydroquinazolin-7-yl)methyl)piperazin-1-yl)-3-fluoro-N-methyibenzamide] belongs over 1 µM.
In the case of `CCn1c(=O)[nH]c2cc(CN3CCN(c4ccc(C(=O)NC)cc4Cl)CC3)ccc2c1=O` [Example 70, 3-chloro-4-(4-((3-ethyl-2,4-dioxo-1,2,3,4-tetrahydroquinazolin-7-yl)methyl)piperazin-1-yl)-N-methylbenzamide], the IC50 is over 1 µM.
The compound `CCn1c(=O)[nH]c2cc(CN3CCN(c4ccc(C(=O)NC)cc4C)CC3)ccc2c1=O` [Example 71, 4-(4-((3-ethyl-2,4-dioxo-1,2,3,4-tetrahydroquinazolin-7-yl)methyl)piperazin- -yl)-N,3-dimethylbenzamide] gave an IC50 of over 1 µM.
